Laboratory results published in PubChem BioAssay (NCI).
“And” between values parts separate entries of the source, which are not always exact repeats. Identical values can stand only once.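 The compound was tested at five concentrations on cells cultured in 96-well plates, with a 48-hour exposure period. Abbreviation: GI50, concentration required for 50% inhibition of growth. The concentration for full growth arrest is given as TGI.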

Columns and labels:
Experiment in all cases: NCI anticancer screen, dose series, 48 h
DU-145 prostate = tested on: DU-145 prostate
EKVX NSCLC = tested on: EKVX NSCLC
A498 renal = tested on: A498 renal
SF-295 CNS = tested on: SF-295 CNS
SK-MEL-28 melanoma = tested on: SK-MEL-28 melanoma
SW-620 colon = tested on: SW-620 colon
UO-31 renal = tested on: UO-31 renal
RPMI-8226 leukemia = tested on: RPMI-8226 leukemia
BT-549 breast = tested on: BT-549 breast
786-0 renal = tested on: 786-0 renal
PC-3 prostate = tested on: PC-3 prostate
U251 CNS = tested on: U251 CNS
HOP-92 NSCLC = tested on: HOP-92 NSCLC
UACC-257 melanoma = tested on: UACC-257 melanoma
MOLT-4 leukemia = tested on: MOLT-4 leukemia
OVCAR-8 ovarian = tested on: OVCAR-8 ovarian
SR leukemia = tested on: SR leukemia
ACHN renal = tested on: ACHN renal
NCI-H522 lung = tested on: NCI-H522 lung
IGROV1 ovarian = tested on: IGROV1 ovarian
SNB-75 CNS = tested on: SNB-75 CNS
HS 578T breast = tested on: HS 578T breast
MCF7 breast = tested on: MCF7 breast
SN12C renal = tested on: SN12C renal
HCT-116 colon = tested on: HCT-116 colon
MDA-MB-435 = tested on: MDA-MB-435
SNB-19 CNS = tested on: SNB-19 CNS
M14 melanoma = tested on: M14 melanoma
NCI-H460 lung = tested on: NCI-H460 lung
SF-268 CNS = tested on: SF-268 CNS
RXF 393 renal = tested on: RXF 393 renal
NCI/ADR-RES ovarian = tested on: NCI/ADR-RES ovarian
UACC-62 melanoma = tested on: UACC-62 melanoma
T-47D breast = tested on: T-47D breast
K-562 leukemia = tested on: K-562 leukemia
NCI-H226 lung = tested on: NCI-H226 lung
CCRF-CEM leukemia = tested on: CCRF-CEM leukemia
CAKI-1 renal = tested on: CAKI-1 renal
TK-10 renal = tested on: TK-10 renal
NCI-H23 lung = tested on: NCI-H23 lung
MDA-MB-231 breast = tested on: MDA-MB-231 breast
HT29 colon = tested on: HT29 colon
LOX IMVI melanoma = tested on: LOX IMVI melanoma
SK-MEL-2 melanoma = tested on: SK-MEL-2 melanoma
KM12 colon = tested on: KM12 colon
MALME-3M melanoma = tested on: MALME-3M melanoma
OVCAR-4 ovarian = tested on: OVCAR-4 ovarian
OVCAR-3 ovarian = tested on: OVCAR-3 ovarian
SK-MEL-5 melanoma = tested on: SK-MEL-5 melanoma
HOP-62 NSCLC = tested on: HOP-62 NSCLC
HCT-15 colon = tested on: HCT-15 colon
A549 NSCLC = tested on: A549 NSCLC
HL-60(TB) leukemia = tested on: HL-60(TB) leukemia
COLO 205 colon = tested on: COLO 205 colon
OVCAR-5 ovarian = tested on: OVCAR-5 ovarian
HCC-2998 colon = tested on: HCC-2998 colon
SK-OV-3 ovarian = tested on: SK-OV-3 ovarian
SF-539 CNS = tested on: SF-539 CNS

What does the source list for `CN1CCN(c2nc(C3=C(c4c[nH]c5ccccc45)C(=O)NC3=O)c3ccccc3n2)CC1`?
GI50 (DU-145 prostate): 23.3 µM and 17.9 µM; TGI (DU-145 prostate): 65 µM and 38 µM; GI50 (EKVX NSCLC): 20.4 µM; TGI (EKVX NSCLC): 65 µM; GI50 (A498 renal): 12.9 µM and 15.4 µM; TGI (A498 renal): 24.3 µM and 29.7 µM; GI50 (SF-295 CNS): 12.2 µM and 19.6 µM; TGI (SF-295 CNS): 25.9 µM and 37.8 µM; GI50 (SK-MEL-28 melanoma): 11.2 µM and 17.7 µM; TGI (SK-MEL-28 melanoma): 20.8 µM and 32.8 µM; GI50 (SW-620 colon): 19.8 µM and 19.1 µM; TGI (SW-620 colon): 65 µM and 35.9 µM; GI50 (UO-31 renal): 8.2 µM and 11.7 µM; TGI (UO-31 renal): 65 µM and 30.1 µM; GI50 (RPMI-8226 leukemia): 12.6 µM; TGI (RPMI-8226 leukemia): 37.6 µM; GI50 (BT-549 breast): 8.91 µM and 14.3 µM; TGI (BT-549 breast): 20.8 µM and 29.3 µM; GI50 (786-0 renal): 15.7 µM and 18.3 µM; TGI (786-0 renal): 39.6 µM and 36.9 µM; GI50 (PC-3 prostate): 27.2 µM and 18.3 µM; TGI (PC-3 prostate): 65 µM and 43.6 µM; GI50 (U251 CNS): 22.5 µM and 13.4 µM; TGI (U251 CNS): 65 µM and 27.7 µM; GI50 (HOP-92 NSCLC): 30.5 µM and 4.23 µM; TGI (HOP-92 NSCLC): 65 µM and 17.4 µM; GI50 (UACC-257 melanoma): 11.2 µM and 15.7 µM; TGI (UACC-257 melanoma): 23.1 µM and 31.3 µM; GI50 (MOLT-4 leukemia): 7.61 µM and 10.2 µM; TGI (MOLT-4 leukemia): 35.9 µM and 54.8 µM; GI50 (OVCAR-8 ovarian): 17.2 µM and 18.4 µM; TGI (OVCAR-8 ovarian): 65 µM and 57.5 µM; GI50 (SR leukemia): 11.6 µM; TGI (SR leukemia): 36.2 µM; GI50 (ACHN renal): 14.9 µM and 20.4 µM; TGI (ACHN renal): 52.4 µM and > 100 µM; GI50 (NCI-H522 lung): 11.3 µM and 15.1 µM; TGI (NCI-H522 lung): 23.7 µM and 32.9 µM; GI50 (IGROV1 ovarian): 21.4 µM and 21 µM; TGI (IGROV1 ovarian): 65 µM and 41.3 µM; GI50 (SNB-75 CNS): 4.91 µM and 5.65 µM; TGI (SNB-75 CNS): 17.5 µM and 21.6 µM; GI50 (HS 578T breast): 9.01 µM and 14.6 µM; TGI (HS 578T breast): 27 µM and 38.3 µM; GI50 (MCF7 breast): 10.1 µM and 16.6 µM; TGI (MCF7 breast): 27.9 µM and 40 µM; GI50 (SN12C renal): 9.03 µM and 12.9 µM; TGI (SN12C renal): 28.5 µM and 35.5 µM; GI50 (HCT-116 colon): 10.3 µM and 9.78 µM; TGI (HCT-116 colon): 31.9 µM and 37.9 µM; GI50 (MDA-MB-435): 9.08 µM and 12.4 µM; TGI (MDA-MB-435): 19.4 µM and 26.1 µM; GI50 (SNB-19 CNS): 27.2 µM and 23.3 µM; TGI (SNB-19 CNS): 65 µM and 49.2 µM; GI50 (M14 melanoma): 10.5 µM and 17 µM; TGI (M14 melanoma): 20.5 µM and 37.6 µM; GI50 (NCI-H460 lung): 15.2 µM and 19.2 µM; TGI (NCI-H460 lung): 33.4 µM and 35.9 µM; GI50 (SF-268 CNS): 17.2 µM and 17.7 µM; TGI (SF-268 CNS): 40.6 µM and 36.6 µM; GI50 (RXF 393 renal): 12.8 µM and 16.3 µM; TGI (RXF 393 renal): 22.6 µM and 31.2 µM; GI50 (NCI/ADR-RES ovarian): 25.4 µM; TGI (NCI/ADR-RES ovarian): 65 µM; GI50 (UACC-62 melanoma): 14.4 µM and 16.2 µM; TGI (UACC-62 melanoma): 35.2 µM and 30.7 µM; GI50 (T-47D breast): 15.6 µM and 26.3 µM; TGI (T-47D breast): 53.4 µM and 82.4 µM; GI50 (K-562 leukemia): 11.9 µM and 12.6 µM; TGI (K-562 leukemia): 65 µM and 49.2 µM; GI50 (NCI-H226 lung): 12.4 µM and 28.3 µM; TGI (NCI-H226 lung): 37.9 µM and 75.3 µM; GI50 (CCRF-CEM leukemia): 28.9 µM and 14 µM; TGI (CCRF-CEM leukemia): 65 µM and 62.8 µM; GI50 (CAKI-1 renal): 9.47 µM and 16.9 µM; TGI (CAKI-1 renal): 54.5 µM and 46.1 µM; GI50 (TK-10 renal): 27.9 µM and 17.5 µM; TGI (TK-10 renal): 65 µM and 49 µM; GI50 (NCI-H23 lung): 14.8 µM and 17.6 µM; TGI (NCI-H23 lung): 39.9 µM and 41.4 µM; GI50 (MDA-MB-231 breast): 22.2 µM and 17.3 µM; TGI (MDA-MB-231 breast): 60.6 µM and 39.4 µM; GI50 (HT29 colon): 14 µM and 12.3 µM; TGI (HT29 colon): 65 µM and 43.4 µM; GI50 (LOX IMVI melanoma): 13.1 µM and 17.3 µM; TGI (LOX IMVI melanoma): 24.5 µM and 36.4 µM; GI50 (SK-MEL-2 melanoma): 12.8 µM and 20.2 µM; TGI (SK-MEL-2 melanoma): 25.8 µM and 38.8 µM; GI50 (KM12 colon): 4.43 µM and 4.8 µM; TGI (KM12 colon): 65 µM and 24.3 µM; GI50 (MALME-3M melanoma): 10 µM and 10.2 µM; TGI (MALME-3M melanoma): 19.9 µM and 24.3 µM; GI50 (OVCAR-4 ovarian): 18.9 µM and 16.2 µM; TGI (OVCAR-4 ovarian): 65 µM and 69.1 µM; GI50 (OVCAR-3 ovarian): 16.2 µM and 19.4 µM; TGI (OVCAR-3 ovarian): 44.8 µM and 41.6 µM; GI50 (SK-MEL-5 melanoma): 11.2 µM and 12.6 µM; TGI (SK-MEL-5 melanoma): 20.3 µM and 26 µM; GI50 (HOP-62 NSCLC): 13.6 µM and 19.8 µM; TGI (HOP-62 NSCLC): 65 µM and 42.9 µM; GI50 (HCT-15 colon): 12.9 µM and 19.5 µM; TGI (HCT-15 colon): 60.2 µM and > 100 µM; GI50 (A549 NSCLC): 21.2 µM and 18.4 µM; TGI (A549 NSCLC): 65 µM and 48.9 µM; GI50 (HL-60(TB) leukemia): 12.3 µM and 15.1 µM; TGI (HL-60(TB) leukemia): 36.6 µM and 35.6 µM; GI50 (COLO 205 colon): 8 µM and 11.4 µM; TGI (COLO 205 colon): 17.3 µM and 24.5 µM; GI50 (OVCAR-5 ovarian): 28.7 µM and 34.5 µM; TGI (OVCAR-5 ovarian): 65 µM and > 100 µM; GI50 (HCC-2998 colon): 11.2 µM and 19 µM; TGI (HCC-2998 colon): 22.6 µM and 36.7 µM; GI50 (SK-OV-3 ovarian): 19.5 µM and 16.2 µM; TGI (SK-OV-3 ovarian): 65 µM and 45.9 µM; GI50 (SF-539 CNS): 10.5 µM and 16.8 µM; TGI (SF-539 CNS): 19.7 µM and 32.9 µM
